Test results as given in patent publication US10000527B2, “11-substituted bile acid derivatives, process for the preparation thereof and use of these compounds as medicaments” (priority 2013, dated 2018).
Values after ≈ are worked out from the molar mass of the structure shown. Where two headings read alike, the source gives them in different places.

Assays:
[1] = tested on: A549 (Human lung adenocarcinoma epithelial cell line); assay: Anti-cancer screening, A549 cell proliferation; assay type: cell-based; details: for IC50: concentration required to inhibit 50% of the cell proliferation; for IC90: concentration required to inhibit 90% of the cell proliferation, read-out: MIC
[2] = tested on: Panc-1 (Human pancreas carcinoma cell line); assay: Anti-cancer screening, Panc-1 cell proliferation; assay type: cell-based; details: for IC50: concentration required to inhibit 50% of the cell proliferation; for IC90: concentration required to inhibit 90% of the cell proliferation, read-out: MIC
[3] = tested on: HeLa (Human Cervix epithelioid carcinoma cell line); assay: Anti-cancer screening, HeLa cell proliferation; assay type: cell-based; details: for IC50: concentration required to inhibit 50% of the cell proliferation; for IC90: concentration required to inhibit 90% of the cell proliferation, read-out: MIC
[4] = tested on: THP-1 (Human acute monocytic leukemia cell line); assay: Anti-cancer screening, THP-1 cell proliferation; assay type: cell-based; details: for IC50: concentration required to inhibit 50% of the cell proliferation; for IC90: concentration required to inhibit 90% of the cell proliferation, read-out: MIC
[5] = tested on: M. Tuberculosis; assay: Anti TB ex vivo infection model, dormant; assay type: cell-based; details: Mycobacterium tuberculosis
[6] = tested on: M. Tuberculosis H37Ra (DORMANT); assay: Anti TB in vitro, dormant; assay type: cell-based, Mycobacterium tuberculosis H37Ra; details: Mycobacterium tuberculosis
[7] = tested on: M. Tuberculosis; assay: Anti TB ex vivo infection model, active; assay type: cell-based; details: Mycobacterium tuberculosis
[8] = tested on: M. Tuberculosis H37Ra (ACTIVE); assay: Anti TB in vitro, active; assay type: cell-based, Mycobacterium tuberculosis H37Ra; details: Mycobacterium tuberculosis
[9] = In Vitro, H37Ra DORMANT, read-out: IC 50
[10] = In Vitro, H37Ra DORMANT, read-out: MIC
[11] = In Vitro, H37Ra ACTIVE, read-out: IC 50
[12] = In Vitro, H37Ra ACTIVE, read-out: MIC

| SMILES | IC50 [1] | IC90 [1] | IC50 [2] | IC90 [2] | IC50 [3] | IC90 [3] | IC50 [4] | IC90 [4] | melting point | IC50 [5] | MIC [5] | IC50 [6, 9] | MIC [6, 10] | IC50 [7] | MIC [7] | IC50 [8, 11] | MIC [8, 12] | also measured |
| --- | --- | --- | --- | --- | --- | --- | --- | --- | --- | --- | --- | --- | --- | --- | --- | --- | --- | --- |
| CC(=O)O[C@H]1C(=O)[C@@]2(C)[C@H]([C@H](OC(=O)c3ccccc3)[C@]3(O)C[C@H](OC(=O)[C@H](O)[C@@H](NC(=O)c4ccccc4)c4ccccc4)C(C)=C1C3(C)C)[C@]1(OC(C)=O)CO[C@@H]1C[C@@H]2O [Paclitaxel, reference compound] | 0.0035 µg/mL (≈ 0.0041 µM) | 0.0706 µg/mL (≈ 0.0827 µM) | 0.128 µg/mL (≈ 0.15 µM) | 5.71 µg/mL (≈ 6.69 µM) | 0.0048 µg/mL (≈ 0.00562 µM) | 0.075 µg/mL (≈ 0.0878 µM) | 0.137 µg/mL (≈ 0.161 µM) | 5.81 µg/mL (≈ 6.81 µM) | – | – | – | – | – | – | – | – | – | – |
| COC(=O)CC[C@@H](C)C1CCC2C3C([C@H](NC(C)C)C(=O)[C@@]21C)[C@@]1(C)CC[C@@H](OC(C)=O)C[C@H]1C[C@H]3OC(C)=O (stereo partly drawn) [Compound 10, (3R,5S,7R,10S,11S,13R)-11-(isopropylamino)-17-((R)-5-methoxy-5-oxopentan-2-yl)-10,13-dimethyl-12-oxohexadecahydro-1H-cyclopenta[a]phenanthrene-3,7-diyl diacetate] | > 100 µg/mL | > 100 µg/mL | > 100 µg/mL | > 100 µg/mL | 11.6 µg/mL | > 100 µg/mL | > 100 µg/mL | > 100 µg/mL | – | – | – | – | – | – | – | – | – | – |
| COC(=O)CC[C@@H](C)C1CCC2C3C([C@H](n4nnc5ccccc54)C(=O)[C@@]21C)[C@@]1(C)CC[C@@H](OC(C)=O)C[C@H]1C[C@H]3OC(C)=O (stereo partly drawn) [Compound 8, (3R,5S,7R,10S,11S,13R)-11-(1H-benzo[d][1,2,3]triazol-1-yl)-17-((R)-5-methoxy-5-oxopentan-2-yl)-10,13-dimethyl-12-oxohexadecahydro-1H-cyclopenta[a]phenanthrene-3,7-diyl diacetate] | 20 µg/mL | > 100 µg/mL | 50 µg/mL | > 100 µg/mL | 20.3 µg/mL | > 100 µg/mL | 29.9 µg/mL | > 100 µg/mL | 106 to 109 °C | 1.65 µg/mL | 8.16 µg/mL | 1.27 µg/mL | 7.15 µg/mL | 1.11 µg/mL | 8.6 µg/mL | 1.08 µg/mL | 9.79 µg/mL | – |
| NNC(=O)c1ccncc1 [ISONIAZID, reference compound] | – | – | – | – | – | – | – | – | – | 0.0024 µg/mL (≈ 0.0175 µM) | 0.0078 µg/mL (≈ 0.0569 µM) | – | – | 0.0024 µg/mL (≈ 0.0175 µM) | 0.075 µg/mL (≈ 0.547 µM) | – | – | IC50 ([6]; H37RA): 0.0023 µg/mL (≈ 0.0168 µM); MIC ([6]; H37RA): 0.075 µg/mL (≈ 0.547 µM); IC50 ([8]; H37RA): 0.0019 µg/mL (≈ 0.0139 µM); MIC ([8]; H37RA): 0.074 µg/mL (≈ 0.54 µM) |
| CCCCCCc1cn([C@@H]2C(=O)[C@@]3(C)C(CCC3[C@H](C)CCC(=O)OC)C3C2[C@@]2(C)CC[C@@H](OC(C)=O)C[C@H]2C[C@H]3OC(C)=O)nn1 (stereo partly drawn) [Compound 2, (3R,5S,7R,10S,11S,13R)-11-(4-hexyl-1H-1,2,3-triazol-1-yl)-17-((R)-5-methoxy-5-oxopentan-2-yl)-10,13-dimethyl-12-oxohexadecahydro-1H-cyclopenta[a]phenanthrene-3,7-diyl diacetate] | > 100 µg/mL | > 100 µg/mL | > 100 µg/mL | > 100 µg/mL | 6.59 µg/mL | > 100 µg/mL | > 100 µg/mL | > 100 µg/mL | – | 0.13 µg/mL | 1.55 µg/mL | 0.17 µg/mL | 2.43 µg/mL | 0.25 µg/mL | 2.8 µg/mL | 0.64 µg/mL | 2.63 µg/mL | – |
| COC(=O)CC[C@@H](C)C1CCC2C3C([C@H](n4cc(-c5ccccc5)nn4)C(=O)[C@@]21C)[C@@]1(C)CC[C@@H](OC(C)=O)C[C@H]1C[C@H]3OC(C)=O (stereo partly drawn) [Compound 1, (3R,5S,7R,10S,11S,13R)-17-((R)-5-methoxy-5-oxopentan-2-yl)-10,13-dimethyl-12-oxo-11-(4-phenyl-1H-1,2,3-triazol-1-yl)hexadecahydro-1H-cyclopenta[a]phenanthrene-3,7-diyl diacetate] | > 100 µg/mL | > 100 µg/mL | > 100 µg/mL | > 100 µg/mL | 7.02 µg/mL | 99.1 µg/mL | > 100 µg/mL | > 100 µg/mL | – | – | – | – | – | – | – | – | – | – |
| CO[C@H]1/C=C/O[C@@]2(C)Oc3c(C)c(O)c4c(O)c(c(/C=N/N5CCN(C)CC5)c(O)c4c3C2=O)NC(=O)/C(C)=C\C=C\[C@H](C)[C@H](O)[C@@H](C)[C@@H](O)[C@@H](C)[C@H](OC(C)=O)[C@@H]1C [RIFAMPICIN, reference compound] | – | – | – | – | – | – | – | – | – | 0.0018 µg/mL (≈ 0.00219 µM) | 0.048 µg/mL (≈ 0.0583 µM) | 0.0014 µg/mL (≈ 0.0017 µM) | 0.043 µg/mL (≈ 0.0523 µM) | 0.0021 µg/mL (≈ 0.00255 µM) | 0.051 µg/mL (≈ 0.062 µM) | 0.0018 µg/mL (≈ 0.00219 µM) | 0.048 µg/mL (≈ 0.0583 µM) | – |
| COC(=O)CC[C@@H](C)C1CCC2C3C([C@H](NC(=O)C4CCCN4C(=O)OC(C)(C)C)C(=O)[C@@]21C)[C@@]1(C)CC[C@@H](OC(C)=O)C[C@H]1C[C@H]3OC(C)=O (stereo partly drawn) [Compound 9, (3R,5S,7R,10S,11S,13R)-11-(1-(tert-butoxycarbonyl)pyrrolidine-2-carboxamido)-17-((R)-5-methoxy-5-oxopentan-2-yl)-10,13-dimethyl-12-oxohexadecahydro-1H-cyclopenta[a]phenanthrene-3,7-diyldiacetate] | 52 µg/mL (≈ 72.5 µM) | > 100 µg/mL | 15 µg/mL (≈ 20.9 µM) | > 100 µg/mL | 18.6 µg/mL (≈ 25.9 µM) | > 100 µg/mL | 46 µg/mL (≈ 64.1 µM) | > 100 µg/mL | 114 to 118 °C | 3.42 µg/mL (≈ 4.77 µM) | 26.3 µg/mL (≈ 36.7 µM) | 2.02 µg/mL (≈ 2.82 µM) | 8.91 µg/mL (≈ 12.4 µM) | 4.16 µg/mL (≈ 5.8 µM) | 26.8 µg/mL (≈ 37.4 µM) | 0.92 µg/mL (≈ 1.28 µM) | 9.41 µg/mL (≈ 13.1 µM) | – |
| COC(=O)CC[C@@H](C)C1CCC2C3C([C@H](NC(=O)C4CCCN4)C(=O)[C@@]21C)[C@@]1(C)CC[C@@H](OC(C)=O)C[C@H]1C[C@H]3OC(C)=O (stereo partly drawn) [Compound 6, (3R,5S,7R,10S,11S,13R)-17-((R)-5-methoxy-5-oxopentan-2-yl)-10,13-dimethyl-12-oxo-11-(pyrrolidine-2-carboxamido)hexadecahydro-1H-cyclopenta[a]phenanthrene-3,7-diyl diacetate] | > 100 µg/mL | > 100 µg/mL | > 100 µg/mL | > 100 µg/mL | > 100 µg/mL | > 100 µg/mL | > 100 µg/mL | > 100 µg/mL | 102.6 to 103.8 °C | – | – | – | – | – | – | – | – | – |
| COC(=O)CC[C@@H](C)C1CCC2C3C([C@H](n4cc(-c5ccccn5)nn4)C(=O)[C@@]21C)[C@@]1(C)CC[C@@H](OC(C)=O)C[C@H]1C[C@H]3OC(C)=O (stereo partly drawn) [Compound 4, (3R,5S,7R,10S,11S,13R)-17-((R)-5-methoxy-5-oxopentan-2-yl)-10,13-dimethyl-12-oxo-11-(4-(pyridin-2-yl)-1H-1,2,3-triazol-1-yl)hexadecahydro-1H-cyclopenta[a]phenanthrene-3,7-diyl diacetate] | > 100 µg/mL | > 100 µg/mL | > 100 µg/mL | > 100 µg/mL | 15.2 µg/mL | 85.9 µg/mL | > 100 µg/mL | > 100 µg/mL | – | – | – | – | – | – | – | – | – | – |
| COC(=O)CC[C@@H](C)C1CCC2C3C([C@H](n4cc(-c5ccc(F)cc5)nn4)C(=O)[C@@]21C)[C@@]1(C)CC[C@@H](OC(C)=O)C[C@H]1C[C@H]3OC(C)=O (stereo partly drawn) [Compound 3, (3R,5S,7R,10S,11S,13R)-11-(4-(4-fluorophenyl)-1H-1,2,3-triazol-1-yl)-17-((R)-5-methoxy-5-oxopentan-2-yl)-10,13-dimethyl-12-oxohexadecahydro-1H-cyclopenta[a]phenanthrene-3,7-diyl diacetate] | > 100 µg/mL | > 100 µg/mL | > 100 µg/mL | > 100 µg/mL | 9.76 µg/mL | > 100 µg/mL | > 100 µg/mL | > 100 µg/mL | – | – | – | – | – | – | – | – | – | – |
| COC(=O)CC[C@@H](C)C1CCC2C3C([C@H](NC(=O)C(CO)NC(=O)OC(C)(C)C)C(=O)[C@@]21C)[C@@]1(C)CC[C@@H](OC(C)=O)C[C@H]1C[C@H]3OC(C)=O (stereo partly drawn) [Compound 7, (3R,5S,7R,10S,11S,13R)-11-(2-((tert-butoxycarbonyl)amino)-3-hydroxypropanamido)-17-((R)-5-methoxy-5-oxopentan-2-yl)-10,13-dimethyl-12-oxohexadecahydro-1H-cyclopenta[a]phenanthrene-3,7-diyl diacetate] | > 100 µg/mL | > 100 µg/mL | > 100 µg/mL | > 100 µg/mL | 18.2 µg/mL | > 100 µg/mL | 76.2 µg/mL | > 100 µg/mL | – | 1.32 µg/mL | 23.8 µg/mL | 0.58 µg/mL | 8.6 µg/mL | 1.96 µg/mL | 27.3 µg/mL | 1.24 µg/mL | 9.03 µg/mL | – |
| CCOC(=O)N[C@@H]1C(=O)[C@@]2(C)C(CCC2[C@H](C)CCC(=O)OC)C2C1[C@@]1(C)CC[C@@H](OC(C)=O)C[C@H]1C[C@H]2OC(C)=O (stereo partly drawn) [Compound 5, (3R,5S,7R,10S,11S,13R)-11-((ethoxycarbonyl)amino)-17-((R)-5-methoxy-5-oxopentan-2-yl)-10,13-dimethyl-12-oxohexadecahydro-1H-cyclopenta[a]phenanthrene-3,7-diyl diacetate] | > 100 µg/mL | > 100 µg/mL | > 100 µg/mL | > 100 µg/mL | 34.2 µg/mL | > 100 µg/mL | > 100 µg/mL | > 100 µg/mL | 82 to 85 °C | – | – | – | – | – | – | – | – | – |
